Organism: Rattus norvegicus
Assay: DrugMatrix - Regimen: Daily Repeat
Format: toxicity, organism-based, Sprague-Dawley
Design: regimen Daily Repeat, gender Male, age 6-8 weeks
Details: in vivo, po, 100 mg/kg, route oral GAVAGE, dose level Low, vehicle .5 % CMC; for ABSOLUTE BASOPHIL / ABSOLUTE EOSINOPHIL / ABSOLUTE LYMPHOCYTE / ABSOLUTE MONOCYTE / ABSOLUTE SEGMENTED NEUTROPHIL / BASOPHIL / EOSINOPHIL / ERYTHROCYTE COUNT / HEMATOCRIT / HEMOGLOBIN / LEUKOCYTE COUNT / LYMPHOCYTE / MEAN CORPUSCULAR HEMOGLOBIN / MEAN CORPUSCULAR HEMOGLOBIN CONCENTRATION / MEAN CORPUSCULAR VOLUME / MONOCYTE / NEUTROPHIL / NUCLEATED RED BLOOD CELLS / PLATELET COUNT: tissue Blood; for ALANINE AMINOTRANSFERASE / ALBUMIN / ALKALINE PHOSPHATASE / ASPARTATE AMINOTRANSFERASE / BLOOD UREA NITROGEN / CARBON DIOXIDE / CHLORIDE / CHOLESTEROL / CREATINE PHOSPHOKINASE / CREATININE / GLUCOSE / LACTATE DEHYDROGENASE / LIPASE / PHOSPHORUS / POTASSIUM / SODIUM / TOTAL BILIRUBIN / TOTAL PROTEIN / URIC ACID: tissue Plasma

CC=Cc1ccc(O)c(OC)c1 [ISOEUGENOL]
ABSOLUTE BASOPHIL (72 h, time 3 day): 0 CELLS/uL | ABSOLUTE EOSINOPHIL (72 h, time 3 day): 0 CELLS/uL | ABSOLUTE LYMPHOCYTE (72 h, time 3 day): 15444.33 CELLS/uL | ABSOLUTE MONOCYTE (72 h, time 3 day): 342 CELLS/uL | ABSOLUTE SEGMENTED NEUTROPHIL (72 h, time 3 day): 1847 CELLS/uL | BASOPHIL (72 h, time 3 day): 0% | EOSINOPHIL (72 h, time 3 day): 0% | ERYTHROCYTE COUNT (72 h, time 3 day): 5.62 x10E6/uL | HEMATOCRIT (72 h, time 3 day): 36.7% | HEMOGLOBIN (72 h, time 3 day): 13.83 G/DL | LEUKOCYTE COUNT (72 h, time 3 day): 17.63 x10E3/uL | LYMPHOCYTE (72 h, time 3 day): 87.33% | MEAN CORPUSCULAR HEMOGLOBIN (72 h, time 3 day): 24.63 pg | MEAN CORPUSCULAR HEMOGLOBIN CONCENTRATION (72 h, time 3 day): 37.77 G/DL | MEAN CORPUSCULAR VOLUME (72 h, time 3 day): 65.23 fL | MONOCYTE (72 h, time 3 day): 2% | NEUTROPHIL (72 h, time 3 day): 10.67% | NUCLEATED RED BLOOD CELLS (72 h, time 3 day): 0 /100WBC | PLATELET COUNT (72 h, time 3 day): 1262 x10E3/uL | ALANINE AMINOTRANSFERASE (72 h, time 3 day): 53.33 u/L | ALBUMIN (72 h, time 3 day): 4.73 G/DL | ALKALINE PHOSPHATASE (72 h, time 3 day): 338.67 u/L | ASPARTATE AMINOTRANSFERASE (72 h, time 3 day): 88.33 u/L | BLOOD UREA NITROGEN (72 h, time 3 day): 17.67 mg/dL | CARBON DIOXIDE (72 h, time 3 day): 23.67 mmol/L | CHLORIDE (72 h, time 3 day): 102 MEQ/L | CHOLESTEROL (72 h, time 3 day): 66.67 mg/dL | CREATINE PHOSPHOKINASE (72 h, time 3 day): 312.33 u/L | CREATININE (72 h, time 3 day): 0.17 mg/dL | GLUCOSE (72 h, time 3 day): 143 mg/dL | LACTATE DEHYDROGENASE (72 h, time 3 day): 280.33 u/L | LIPASE (72 h, time 3 day): 9.33 u/L | PHOSPHORUS (72 h, time 3 day): 11.33 mg/dL | POTASSIUM (72 h, time 3 day): 6.23 MEQ/L | SODIUM (72 h, time 3 day): 144.93 MEQ/L | TOTAL BILIRUBIN (72 h, time 3 day): 0.23 mg/dL | TOTAL PROTEIN (72 h, time 3 day): 5.83 G/DL | URIC ACID (72 h, time 3 day): 1.8 mg/dL | ABSOLUTE BASOPHIL (120 h, time 5 day): 0 CELLS/uL | ABSOLUTE EOSINOPHIL (120 h, time 5 day): 450 CELLS/uL | ABSOLUTE LYMPHOCYTE (120 h, time 5 day): 12545.67 CELLS/uL | ABSOLUTE MONOCYTE (120 h, time 5 day): 392.67 CELLS/uL | ABSOLUTE SEGMENTED NEUTROPHIL (120 h, time 5 day): 1645 CELLS/uL | BASOPHIL (120 h, time 5 day): 0% | EOSINOPHIL (120 h, time 5 day): 3% | ERYTHROCYTE COUNT (120 h, time 5 day): 5.9 x10E6/uL | HEMATOCRIT (120 h, time 5 day): 36% | HEMOGLOBIN (120 h, time 5 day): 13.27 G/DL | LEUKOCYTE COUNT (120 h, time 5 day): 15.03 x10E3/uL | LYMPHOCYTE (120 h, time 5 day): 83.33% | MEAN CORPUSCULAR HEMOGLOBIN (120 h, time 5 day): 22.57 pg | MEAN CORPUSCULAR HEMOGLOBIN CONCENTRATION (120 h, time 5 day): 36.83 G/DL | MEAN CORPUSCULAR VOLUME (120 h, time 5 day): 61.17 fL | MONOCYTE (120 h, time 5 day): 2.67% | NEUTROPHIL (120 h, time 5 day): 11% | NUCLEATED RED BLOOD CELLS (120 h, time 5 day): 0 /100WBC | PLATELET COUNT (120 h, time 5 day): 1402 x10E3/uL | ALANINE AMINOTRANSFERASE (120 h, time 5 day): 47.67 u/L | ALBUMIN (120 h, time 5 day): 4.37 G/DL | ALKALINE PHOSPHATASE (120 h, time 5 day): 345.67 u/L | ASPARTATE AMINOTRANSFERASE (120 h, time 5 day): 83.33 u/L | BLOOD UREA NITROGEN (120 h, time 5 day): 18 mg/dL | CARBON DIOXIDE (120 h, time 5 day): 23.67 mmol/L | CHLORIDE (120 h, time 5 day): 109.67 MEQ/L | CHOLESTEROL (120 h, time 5 day): 58 mg/dL | CREATINE PHOSPHOKINASE (120 h, time 5 day): 251.33 u/L | CREATININE (120 h, time 5 day): 0.21 mg/dL | GLUCOSE (120 h, time 5 day): 141 mg/dL | LACTATE DEHYDROGENASE (120 h, time 5 day): 180.67 u/L | LIPASE (120 h, time 5 day): 9 u/L | PHOSPHORUS (120 h, time 5 day): 11.17 mg/dL | POTASSIUM (120 h, time 5 day): 6.1 MEQ/L | SODIUM (120 h, time 5 day): 146.53 MEQ/L | TOTAL BILIRUBIN (120 h, time 5 day): 0.2 mg/dL | TOTAL PROTEIN (120 h, time 5 day): 6.13 G/DL | URIC ACID (120 h, time 5 day): 1.57 mg/dL

Source: ChEMBL document CHEMBL3885881, “DrugMatrix”
